{"source": "patent US5712251A", "about": "“Treatment method” (Roussel Uclaf, priority 1979, dated 1998)", "key": {"[1]": {"tested_on": "ovarian steroidogenosis", "experiment": "Inhibitory activity on ovarian steroidogenesis in women (Example 3)", "assay_type": "in vivo", "experimental": "The study was conducted for 6 consecutive cycles consisting of 2 pretreatment cycles, 2 treatment cycles and 2 post-treatment cycles. […] Daily blood samples were taken between 4 and 6 P.M. to measure seric levels of LH, FSH, progesterone and estradiol which were determined by radioimmuno-logic tests with double antibodies. The antibodies to measure LH and FSH were furnished by the National Pituitary Agency of N.I.H. of Bethesda, Md.\nEstradiol and progesterone were measured with highly specific antibodies developed against 7-(O-carboxymethyl)-oxime of estradiol and 12-(O-carboxymethyl)-oxime of progesterone, respectively [3H] 17β-estradiol and ^125 I-progesterone-12-[O-carboxymethyl)-oxime]used as tracers. The serum was extracted with benzene and the steroids were separated with a LH-20 column before the determination. The radioimmunological results were exploited by the program derived from model II of Rodbard and Lewald as in Example 1 and the statistical significance was measured by the multiple level test of Ducan-Kramer of Example 1. The results are shown in the graphs of sheets 3 to 5 of the Figures."}, "[2]": {"tested_on": "testicular steroidogensis", "experiment": "Inhibitory activity against testicular steroidogenesis in men in good health, single intranasal dose (Example 1)", "assay_type": "in vivo", "conditions": "for level of testosterone/steroids on the fourth day after administration: single intranasal dose of 500 μg, fourth day (until 6th day)", "experimental": "The inhibitory activity of D Ser (Tbu)^6 or Gly^10 LH-RH ethylamide (described in German application Ser. No. 2,438,350) against testicular steroidogensis in men in good health was determined on men in good health aged 30 to 40 years. The said product was administered intranasally at a dose of 500 μg in a few drops of distilled water at 8 A.M. on the third day of the test. For 2 days prior to the treatment and for 6 days after the treatment, samples of blood were taken daily at 8 A.M., 3 P.M. and 10 P.M. On the day of administration of the LH-RH agonist, blood samples were taken at 11 A.M. and 6 P.M.\nThe seric concentrations of LH and FSH were measured by radioimmuno-logic dosages with double antibodies and the antibodies for measuring LH and FSH were furnished by the National Pituitary Agency of N.I.H. in Bethesda, Md. The seric concentrations of steroids was measured by radioimmuno-logic dosages in which one ml of serum was extracted with ether and the steroids were separated on a LH-20 column before measuring with radioimmuno-logic dosages. The radioimmuno-logic dosage results were determined by a program derived from model II of Rodbard et al [Second Karolinska Symposium on Research Methods in Reproductive Endocrinology, Diezfalusky Editer, Copenhague (1970), p. 79-103]. The statistical significance was determined by the \"multiple level test\" of Duncan-Kramer [Kramer, Biometrics, Vol 12 (1956), p. 307]. The results are shown in the graphs on sheet 1 of the Figures filed herewith."}, "[3]": {"tested_on": "prostate and seminal vesicules", "experiment": "Peptide in association with an antiandrogen: weight of prostate and seminal vesicles of rats (Example 4)", "assay_type": "in vivo, rats of the Sprague-Dawley strain", "conditions": "100 or 500 μg peptide s.c. daily plus 5 mg product A twice daily, 14 days", "procedure": "The effect of the administration of D Ser (Tbu)^6 of Gly^10 LH-RH ethylamide in association with an antiandrogen was determined on groups of 9 normal rats of the Sprague-Dawley strain weighing about 250 g. The rats received for 14 days a subcutaneous administration at 9 A.M. of D Ser (Tbu)^6 of Gly^10 LH-RH ethylamide at a dose of 20, 100 or 500 μg in physiological serum and at 9 A.M. and 4 P.M. doses of 1 or 5 mg of 5,5-dimethyl-3-[4-nitro-3-trifluoromethyl-phenyl]-2,4-imidazolidinedione (product A) in solution in sesame oil containing 5% of benzyl alcohol. One group of rats received only physiological serum and one group received only product A.\nThe animals were killed 24 hours after the last injection and the weight of the prostate and seminal vesicules of the rats were determined."}, "[4]": {"conditions": "3rd day following peptide administration, intranasal 500 μg"}}}
{"smiles": "CCNC(=O)[C@@H]1CCCN1C(=O)[C@H](CCCNC(=N)N)NC(=O)[C@H](CC(C)C)NC(=O)[C@@H](COC(C)(C)C)NC(=O)[C@H](Cc1ccc(O)cc1)NC(=O)[C@H](CO)NC(=O)[C@H](Cc1c[nH]c2ccccc12)NC(=O)[C@H](Cc1c[nH]cn1)NC(=O)[C@@H]1CCC(=O)N1", "note": "[D Ser (Tbu)^6 of Gly^10 LH-RH ethylamide]", "values": [{"measurement": "progesterone level in cycles of post-treatment, pretreatment cycles as base of 100%", "setting": "[1]; 12 cycles, 6 women", "value": 99, "unit": "%"}, {"measurement": "progesterone level in cycles of treatment, pretreatment cycles as base of 100%", "setting": "[1]; 12 cycles, 6 women", "value": 46, "unit": "%"}, {"measurement": "level of progesterone reduced as compared to the controls", "setting": "[1]; review of 12 cycles (sheet 5)", "value": 46, "unit": "%"}, {"measurement": "level of seric progesterone in the 2 cycles of post-treatment", "setting": "[1]; sheet 4", "value": "return to normal"}, {"measurement": "reduction of seric level of progesterone as compared to controls, first treatment cycle", "setting": "[1]; typical subject (sheet 3), 500 μg intranasal at 8 A.M. and 5 P.M. on one day between 4th and 9th day after LH peak", "value": 13, "unit": "%"}, {"measurement": "reduction of seric level of progesterone as compared to controls, second treatment cycle", "setting": "[1]; typical subject (sheet 3), same regimen", "value": 34, "unit": "%"}, {"measurement": "concentration of 17-OH-progesterone relative to initial control values", "setting": "[2]; [4]", "value": 40, "unit": "%"}, {"measurement": "concentration of testosterone relative to initial control values", "setting": "[2]; [4]", "value": 50, "unit": "%"}, {"measurement": "FSH plasmatic level", "setting": "[2]; intranasal 500 μg, men", "value": "increase"}, {"measurement": "LH plasmatic level", "setting": "[2]; intranasal 500 μg, men", "value": "increase"}, {"measurement": "level of testosterone/steroids on the fourth day after administration", "setting": "[2]; listed as D Ser (Tbu)^6 or Gly^10 LH-RH ethylamide", "value": "returned to normal"}, {"measurement": "level of testosterone/steroids on the fourth day after administration", "setting": "[2]; listed as peptide", "value": "return to normal levels"}, {"measurement": "weight of the prostate", "setting": "[3]", "value": "Similar, but a little less marked"}, {"measurement": "weight of the seminal vesicules", "setting": "[3]", "value": "approached the weight of the seminal vesicules of castrated rats"}]}
